# Results taken from patent publication US20260256859A1, “COMPOSITION FOR PREVENTING, AMELIORATING, OR TREATING TUBERCULOSIS COMPRISING EXTRACT OF PHILADELPHUS SP. PLANT AS ACTIVE INGREDIENT” (priority 2023, published 2026).
# Assays:
# [1] = system: Mycobacterium tuberculosis H37Rv; assay: MIC and FIC of Philadelphus tenuifolius leaf extract alone or combined with an anti-tuberculosis agent in Rv-infected BMDM; format: cell-based; settings: Rv-infected mouse BMDM, 48 hours; for MIC combination, RIF (antibiotic component): MIC of the antibiotic when combined with Philadelphus tenuifolius leaf extract; for MIC alone, Antibiotics: MIC = lowest concentration inhibiting more than 99% of bacterial growth
# [2] = system: Mycobacterium tuberculosis H37Rv; assay: Intracellular M. tuberculosis CFU count in infected bone marrow-derived macrophages after treatment with extract or anti-tuberculosis agent; format: cell-based; settings: C57BL/6 mouse BMDM, H37Rv MOI=1, anti-tuberculosis agent 100 ng/mL, 48 hours; FIG. 2
SMILES,"MIC combination, RIF (antibiotic component) [1] [µg/mL]","MIC alone, Antibiotics [1] [µg/mL]",number of intracellular M. tuberculosis in mouse bone marrow-derived macrophages (CFU) vs infection control (Rv) [2]
CC[C@@H](CO)NCCN[C@@H](CC)CO [ethambutol],0.3,4,statistically significantly reduced
NNC(=O)c1ccncc1 [isoniazid],0.03,0.1,statistically significantly reduced
CO[C@H]1/C=C/O[C@@]2(C)Oc3c(C)c(O)c4c(O)c(c(/C=N/N5CCN(C)CC5)c(O)c4c3C2=O)NC(=O)/C(C)=C\C=C\[C@H](C)[C@H](O)[C@@H](C)[C@@H](O)[C@@H](C)[C@H](OC(C)=O)[C@@H]1C [rifampicin],0.03,0.1,–
